Measurements from patent US6534518B1, “Polysubstituted 6-phenylphenanthridines with PDE-IV inhibiting activity” (Altana Pharma AG, priority 1999, dated 2003).

Tested on: not given
Assay: not given
Conditions: not given

Row | Compound | melting point [°C]
1 | COc1cc2c(cc1OC)[C@@H]1CCCC[C@@H]1N=C2c1ccc([N+](=O)[O-])c([N+](=O)[O-])c1 [Compound 1, (−)-cis-8,9-Dimethoxy-6-(3,4-dinitrophenyl)-1,2,3,4,4a,10b-hexahydrophenanthridine] | 162 to 165

Tested on: PDE4
Assay: Inhibition of PDE4 activity (method of Bauer and Schwabe, microtiter plates)
Type: biochemical
Conditions: inhibitory concentration as −log IC50 (mol/l)
Method: The activity test was carried out according to the method of Bauer and Schwabe, which was adapted to microtiter plates (Naunyn-Schmiedeberg's Arch. Pharmacol. 1980, 311, 193-198). The PDE reaction takes place in the first step here. In a second step, the resulting 5′-nucleotide is cleaved by a 5′-nucloetidase of the snake venom of Crotalus atrox to the uncharged nucleoside. In the third step, the nucleoside is separated from the remaining charged substrate on ion-exchange columns. The columns are eluted directly into minivials, into which 2 ml of scintillator fluid are additionally added for counting, using 2 ml of 30 mM ammonium formate (pH 6.0).
The inhibitory values determined for the compounds according to the invention [inhibitory concentration as −log IC50 (mol/l)] follow from the following Table A, in which the numbers of the compounds correspond to the numbers of the examples.

Row | Compound | −log IC50 (inhibition of the PDE4 activity)
2 | COc1cc2c(cc1OC)[C@@H]1CCCC[C@@H]1N=C2c1cc([N+](=O)[O-])cc([N+](=O)[O-])c1 [Compound 3, (−)-cis-8,9-Dimethoxy-6-(3,5-dinitrophenyl)-1,2,3,4,4a,10b-hexahydrophenanthridine] | 6.56
3 | COc1cc2c(cc1OC)C1CCCCC1N=C2c1cc(C(F)(F)F)cc(C(F)(F)F)c1 (single isomer, unassigned; (-)) [Compound 2, (−)-cis-6-(Bis-3,5-trifluoromethylphenyl)-8,9-dimethoxy-1,2,3,4,4a,10b-hexahydrophenanthridine] | 6.93
4 | COc1cc2c(cc1OC)[C@@H]1CCCC[C@@H]1N=C2c1ccc([N+](=O)[O-])c([N+](=O)[O-])c1 [Compound 1, (−)-cis-8,9-Dimethoxy-6-(3,4-dinitrophenyl)-1,2,3,4,4a,10b-hexahydrophenanthridine] | 7.26
5 | CCOc1cc(C2=N[C@H]3CCCC[C@H]3c3cc(OC)c(OC)cc32)cc(OCC)c1OCC [Compound 6, (−)-cis-8,9-Dimethoxy-6-(3,4,5-triethoxyphenyl)-1,2,3,4,4a,10b-hexahydrophenanthridine] | 7.81
6 | COc1cc2c(cc1OC)[C@@H]1CCCC[C@@H]1N=C2c1cc(OC)c(OC)c(S(C)(=O)=O)c1 [Compound 5, (−)-cis-6-(3-Methanesulfonyl-4,5-dimethoxyphenyl)-8,9-dimethoxy-1,2,3,4,4a,10b-hexahydrophenanthridine] | 7.57
7 | COc1cc2c(cc1OC)[C@@H]1CCCC[C@@H]1N=C2c1cc(OC)c(OC)c(OC)c1 [Compound 4, (−)-cis-8,9-Dimethoxy-6-(3,4,5-trimethoxyphenyl)-1,2,3,4,4a,10b-hexahydrophenanthridine] | 6.96
